# Laboratory results from patent US20240279221A1, “HETEROCYCLIC COMPOUNDS AND METHODS OF USE” (Schrödinger, Inc., priority 2021, published 2024).
# Target: SOS1:KRAS (G12C) interaction (Homo sapiens (Human), UniProt Q07889)
# Assay: SOS1-KRas(G12C) FRET Assay
# Format: binding
# Conditions: 0.5 nM His10-SOS1 (res. 564-1049), 2.5 nM GST-KRAS (res. 1-169, G12C); read-out: SOS-KRas(G12C) FRET IC50
# Method: Inhibition of the SOS1:KRAS interaction was measured using purified GST-tagged KRAS (res. 1-169, G12C, purified based on Hillig, et al., Proc Natl Acad Sci USA (2019); 116(7):2551-2560) and recombinant His10-SOS1 (res. 564-1049; purified based on Hillig, et al.). The final assay was performed at 20 uL with 0.5 nM SOS1 protein and 2.5 nM KRAS protein in a buffer of PBS, 0.1% BSA, 5 mM MgCl2, 0.0025% Igepal, 100 mM KF, 5 mM DTT in a white 384 square well OptiPlate (PerkinElmer, Cat. 6007290). A 2× KRAS working solution was prepared in an assay buffer containing 5 nM GST-KRAS G12C and 2 nM anti-GST-Eu(K) (Cisbio, Cat. 61GSTKLA) and pre-incubated for 15 minutes at 25° C. Compounds were serially diluted in 100% DMSO from 2 mM (positive control, compound I-13, PCT Publ. No. WO2018/115380) or 20 mM and then diluted 1:20 in assay buffer before incubation with a solution of SOS1 protein mixed 1:5 with anti-6His-XL665 FRET donor (Cisbio, Cat. 61HISXL) for 15 minutes at 25° C. before addition of 2× KRAS working solution. The final DMSO concentration is 0.5%. Plates were incubated at RT for 2 hrs before the FRET signal was measured using Envision at emission 665 nm and 615 nm. FRET signal was converted to percentage of protein-protein interaction using the following equation:
# [formula] • C: signal with compound treatment • P: signal for positive control (DMSO) • N: signal for negative control (no SOS1 added) • IC50 and Hill coefficients were obtained using Graph Pad Prism (Graph Pad software, Inc, USA) with non-linear regression analysis.
# Chain of SOS1:KRAS (G12C) interaction (Q07889 564-1049, stated change not applied): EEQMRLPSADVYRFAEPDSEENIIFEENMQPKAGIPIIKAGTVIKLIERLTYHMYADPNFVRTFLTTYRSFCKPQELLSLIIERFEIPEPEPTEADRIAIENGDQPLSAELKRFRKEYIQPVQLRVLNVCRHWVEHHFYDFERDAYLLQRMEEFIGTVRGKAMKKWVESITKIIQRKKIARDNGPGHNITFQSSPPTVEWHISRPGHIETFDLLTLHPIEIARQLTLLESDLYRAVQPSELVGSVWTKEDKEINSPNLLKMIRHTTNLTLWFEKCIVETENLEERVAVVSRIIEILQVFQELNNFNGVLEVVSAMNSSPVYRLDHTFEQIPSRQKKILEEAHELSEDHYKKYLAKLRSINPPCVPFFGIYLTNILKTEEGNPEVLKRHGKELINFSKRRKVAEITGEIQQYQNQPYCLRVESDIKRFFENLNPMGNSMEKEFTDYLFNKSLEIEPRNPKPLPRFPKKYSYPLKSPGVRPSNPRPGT
row,Structure (SMILES),IC50
1,"CC(=O)N1C[C@H]2C[C@@]2(n2cc3c(N[C@H](C)c4cccc(C(F)F)c4F)nn(C)c(=O)c3cc2=O)C1 (single isomer, unassigned) [Example 139]",120 nM
2,"C[C@@H](Nc1nn(C)c(=O)c2cc(=O)n(C3(C(F)F)CC3)cc12)c1cccc2cccn12 [Example 114, (R)-6-(1-(difluoromethyl)cyclopropyl)-4-((1-(indolizin-5-yl)ethyl)amino)-2-methyl-2,6-dihydropyrido[3,4-d]pyridazine-1,7-dione]",2060 nM
3,"COC1(C(=O)N2CC(C)(n3cc4c(N[C@H](C)c5cccc(C(F)F)c5F)nn(C)c(=O)c4cc3=O)C2)CC1 [Example 151, (R)-4-((1-(3-(difluoromethyl)-2-fluorophenyl)ethyl)amino)-6-(1-(1-methoxycyclopropane-1-carbonyl)-3-methylazetidin-3-yl)-2-methyl-2,6-dihydropyrido[3,4-d]pyridazine-1,7-dione]",564 nM
4,"C[C@@H](Nc1nn(C)c(=O)c2cc(=O)n(C3(CN4CC(F)C4)CC3)cc12)c1cccc(C(F)F)c1F [Example 124, (R)-4-((1-(3-(difluoromethyl)-2-fluorophenyl)ethyl)amino)-6-(1-((3-fluoroazetidin-1-yl)methyl)cyclopropyl)-2-methylpyrido[3,4-d]pyridazine-1,7(2H,6H)-dione]",886 nM
5,"COC(C)(C)C(F)(F)c1cccc([C@@H](C)Nc2nn(C)c(=O)c3cc(=O)n(C4CC4)cc23)c1F [Example 109, (R)-6-cyclopropyl-4-((1-(3-(1,1-difluoro-2-methoxy-2-methylpropyl)-2-fluorophenyl)ethyl)amino)-2-methyl-2,6-dihydropyrido[3,4-d]pyridazine-1,7-dione]",120 nM
6,"C[C@@H](Nc1nn(C)c(=O)c2cc(=O)n([C@@H]3C[C@H]3C3CC3)cc12)c1cccc(C(F)F)c1F (single isomer, unassigned) [Example 136]",185 nM
7,"CCn1nc(N[C@H](C)c2cccc(C(F)(F)F)c2C)c2cn(C3CC3)c(=O)cc2c1=O [Example 8, (R)-6-cyclopropyl-2-ethyl-4-((1-(2-methyl-3-(trifluoromethyl)phenyl)ethyl)amino)-2,6-dihydropyrido[3,4-d]pyridazine-1,7-dione]",1310 nM
8,"C[C@@H](Nc1nn(C)c(=O)c2cc(=O)n([C@@H]3C[C@H]3C(F)(F)F)cc12)c1cccc(C(F)F)c1F (single isomer, unassigned) [Example 138]",434 nM
9,"C[C@@H](Nc1nn(C)c(=O)c2cc(=O)n(C3(C)CC(F)(F)C3)cc12)c1cccc(C(F)F)c1F [Example 134, (R)-6-(3,3-difluoro-1-methylcyclobutyl)-4-((1-(3-(difluoromethyl)-2-fluorophenyl)ethyl)amino)-2-methyl-2,6-dihydropyrido[3,4-d]pyridazine-1,7-dione]",282 nM
10,"C[C@@H](Nc1nn(C)c(=O)c2c(OC3CC(F)(F)C3)c(=O)n(C3(C(F)F)CC3)cc12)c1cccc(C(F)F)c1F [Example 87, (R)-8-(3,3-difluorocyclobutoxy)-4-((1-(3-(difluoromethyl)-2-fluorophenyl)ethyl)amino)-6-(1-(difluoromethyl)cyclopropyl)-2-methylpyrido[3,4-d]pyridazine-1,7(2H,6H)-dione]",118 nM
11,"C[C@@H](Nc1nn(C)c(=O)c2cc(=O)n([C@H]3CC34CCC(F)(F)CC4)cc12)c1cccc(C(F)F)c1F (single isomer, unassigned) [Example 130]",82.6 nM
12,"CC(=O)N1CC2(n3cc4c(N[C@H](C)c5cccc(C(F)F)c5F)nn(C)c(=O)c4cc3=O)CC1C2 [Example 146, (R)-6-(2-acetyl-2-azabicyclo[2.1.1]hexan-4-yl)-4-((1-(3-(difluoromethyl)-2-fluorophenyl)ethyl)amino)-2-methyl-2,6-dihydropyrido[3,4-d]pyridazine-1,7-dione]",70.6 nM
13,"CC(=O)N1CC[C@](C)(n2cc3c(N[C@H](C)c4cccc(C(F)F)c4F)nn(C)c(=O)c3cc2=O)C1 (single isomer, unassigned) [Example 144]",209 nM
14,"C[C@@H](Nc1nn(C)c(=O)c2c(OC3COC3)c(=O)n(C3(C(F)F)CC3)cc12)c1cccc(C(F)F)c1F [Example 88, (R)-4-((1-(3-(difluoromethyl)-2-fluorophenyl)ethyl)amino)-6-(1-(difluoromethyl)cyclopropyl)-2-methyl-8-(oxetan-3-yloxy)pyrido[3,4-d]pyridazine-1,7(2H,6H)-dione]",83.5 nM
15,"Cn1nc(N[C@@H](c2cccc(C(F)(F)F)c2)C(F)F)c2cn(C3CC3)c(=O)cc2c1=O [Example 111, (S)-6-cyclopropyl-4-((2,2-difluoro-1-(3-(trifluoromethyl)phenyl)ethyl)amino)-2-methylpyrido[3,4-d]pyridazine-1,7(2H,6H)-dione]",631 nM
16,"Cc1cc([C@H](C)Nc2nn(C)c(=O)c3cc(=O)n(C4CC4)cc23)cc(C(F)(F)F)c1 [Example 117, 6-cyclopropyl-2-methyl-4-[[(1S)-1-[3-methyl-5-(trifluoromethyl)phenyl]ethyl]amino]pyrido[3,4-d]pyridazine-1,7-dione]",568 nM
17,"COc1c(=O)n(C2CC2)cc2c(N[C@H](C)c3cccc(C(F)F)c3F)nn(C)c(=O)c12 [Example 85, (R)-6-cyclopropyl-4-((1-(3-(difluoromethyl)-2-fluorophenyl)ethyl)amino)-8-methoxy-2-methyl-2,6-dihydropyrido[3,4-d]pyridazine-1,7-dione]",192 nM
18,"COCC(F)(F)c1cccc([C@H](C)Nc2nn(C)c(=O)c3cc(=O)n(C4(C(F)F)CC4)cc23)c1F [Example 162, 4-[[(1S)-1-[3-(1,1-difluoro-2-methoxy-ethyl)-2-fluoro-phenyl]ethyl]amino]-6-[1-(difluoromethyl)cyclopropyl]-2-methyl-pyrido[3,4-d]pyridazine-1,7-dione]",> 10000 nM
19,"C[C@@H](Nc1nn(C)c(=O)c2cc(=O)n(C34COC(CF)(C3)C4)cc12)c1cccc(C(F)F)c1F [Example 178, (R)-4-((1-(3-(difluoromethyl)-2-fluorophenyl)ethyl)amino)-6-(1-(fluoromethyl)-2-oxabicyclo[2.1.1]hexan-4-yl)-2-methyl-2,6-dihydropyrido[3,4-d]pyridazine-1,7-dione]",76 nM

# Now from value to compound:
row,IC50,Structure (SMILES)
1,37 nM,"C[C@@H](Nc1nn(C)c(=O)c2cc(=O)n(C3CC3)cc12)c1cccc(C(F)(F)CO)c1F [Example 104, (R)-6-cyclopropyl-4-((1-(3-(1,1-difluoro-2-hydroxyethyl)-2-fluorophenyl)ethyl)amino)-2-methyl-2,6-dihydropyrido[3,4-d]pyridazine-1,7-dione]"
2,24.2 nM,"COc1c(=O)n([C@@]2(C(F)(F)F)CCOC2)cc2c(N[C@H](C)c3cccc(C(F)F)c3F)nn(C)c(=O)c12 (single isomer, unassigned) [Example 157]"
3,70.5 nM,"C[C@@H](Nc1nn(C)c(=O)c2cc(=O)n([C@H]3C[C@@H]3C3CC3)cc12)c1cccc(C(F)F)c1F (single isomer, unassigned) [Example 135]"
4,19.3 nM,"C[C@@H](Nc1nn(C)c(=O)c2cc(=O)n([C@@]3(C(F)(F)F)CCOC3)cc12)c1cccc(C(F)F)c1F (single isomer, unassigned) [Example 164]"
5,7.8 nM,"CC(=O)N1CC[C@@](C)(n2cc3c(N[C@H](C)c4cccc(C(F)F)c4F)nn(C)c(=O)c3cc2=O)C1 (single isomer, unassigned) [Example 143]"
6,48.1 nM,"COC(C)(C)C(F)(F)c1cccc([C@@H](C)Nc2nn(C)c(=O)c3cc(=O)n(C4(C(F)F)CC4)cc23)c1F [Example 110, (R)-4-((1-(3-(1,1-difluoro-2-methoxy-2-methylpropyl)-2-fluorophenyl)ethyl)amino)-6-(1-(difluoromethyl)cyclopropyl)-2-methyl-2,6-dihydropyrido[3,4-d]pyridazine-1,7-dione]"
7,24.9 nM,"COCC(F)(F)c1cccc([C@@H](C)Nc2nn(C)c(=O)c3cc(=O)n(C4(C(F)F)CC4)cc23)c1F [Example 161, 4-[[(1R)-1-[3-(1,1-difluoro-2-methoxy-ethyl)-2-fluoro-phenyl]ethyl]amino]-6-[1-(difluoromethyl)cyclopropyl]-2-methyl-pyrido[3,4-d]pyridazine-1,7-dione]"
8,4.4 nM,"C[C@@H](Nc1nn(C)c(=O)c2cc(=O)n(C3(C(F)F)CC3)cc12)c1cccc(C(F)(F)c2ccncc2)c1F [Example 174, (R)-4-((1-(3-(difluoro(pyridin-4-yl)methyl)-2-fluorophenyl)ethyl)amino)-6-(1-(difluoromethyl)cyclopropyl)-2-methyl-2,6-dihydropyrido[3,4-d]pyridazine-1,7-dione]"
